Assay results taken from patent publication US9242996B2 (Novartis AG, priority 2013, dated 2016).

Molecular target: activated ERK2 (Homo sapiens (Human), UniProt P28482)
Test: Activated ERK2 (20 pM) Kinase Assay (AlphaScreen, ERKtide phosphorylation)
Assay type: biochemical
Conditions: 0.02 nM ERK2, 400 nM ERKtide peptide, 35 μM ATP, 30 min preincubation
Description: Activated ERK2 (20 pM) Kinase Assay:
The assay was carried out in 20 mM HEPES [pH 7.5], 5 mM MgCl2, 1 mM DTT, 0.01% Tween-20, 0.05% BSA using 0.02 nM ERK2, 400 nM ERKtide peptide and 35 μM ATP (all concentrations are final in the reaction) in a total volume of 10.25 μL. […] Compound dilution series were prepared in 100% DMSO. ERK2 was preincubated with compounds for 30 minutes at ambient temperature. Reaction was initiated by addition of a substrate cocktail of ERKtide peptide and ATP and was allowed to proceed for 4 hours at ambient temperature. Reaction was terminated by addition of 10 μL of a 2× stop buffer consisting of 100 mM Tris-Cl [pH 7.5], 25 mM EDTA, 0.01% Tween 20, 20 μg/mL of AlphaScreen Protein A Acceptor Beads, 20 μg/mL of Streptavidin Donor Beads (PerkinElmer, Waltham, Mass.), and 1:1000 dilution phospho-EGF Receptor (Thr669) antibody (Cat #8808, Cell Signaling Technology, Danvers, Mass.). Terminated reactions were read, after overnight incubation in the dark, on an EnVision Multilabel Plate Reader (PerkinElmer, Waltham, Mass.), with excitation and emission wavelengths set to 680 nm and 570 nm, respectively. IC50 values were determined using a four-parameter fit.

Chain of activated ERK2 (P28482 whole entry): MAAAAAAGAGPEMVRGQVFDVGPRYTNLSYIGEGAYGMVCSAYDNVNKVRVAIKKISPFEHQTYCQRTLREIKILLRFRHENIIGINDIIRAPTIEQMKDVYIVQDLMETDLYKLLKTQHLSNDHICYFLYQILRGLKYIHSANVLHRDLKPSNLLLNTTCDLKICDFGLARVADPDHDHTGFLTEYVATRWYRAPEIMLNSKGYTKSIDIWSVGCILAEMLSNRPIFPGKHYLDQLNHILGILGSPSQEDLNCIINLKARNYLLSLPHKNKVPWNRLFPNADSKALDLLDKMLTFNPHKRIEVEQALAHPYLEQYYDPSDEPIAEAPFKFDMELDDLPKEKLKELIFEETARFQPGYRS

Row | Compound | IC50 [nM]
1 | Cn1nncc1-c1cnc(N)c(-c2ccc(C(=O)N[C@H](CO)c3cccc(Br)c3)c(F)c2)c1 [Example 266, (S)-4-(2-amino-5-(1-methyl-1H-1,2,3-triazol-5-yl)pyridin-3-yl)-N-(1-(3-bromophenyl)-2-hydroxyethyl)-2-fluorobenzamide] | 0.0487
2 | Cn1nncc1-c1cnc(N)c(-c2ccc(C(=O)N[C@H](CO)c3cc(F)cc(I)c3)c(F)c2)c1 [Example 267, (S)-4-(2-amino-5-(1-methyl-1H-1,2,3-triazol-5-yl)pyridin-3-yl)-2-fluoro-N-(1-(3-fluoro-5-iodophenyl)-2-hydroxyethyl) benzamide] | 0.0158
3 | Cc1nn(C)cc1-c1cnc(N)c(-c2ccc(C(=O)N[C@H](CO)c3cc(F)cc(C(F)F)c3)c(F)c2)c1 [Example 270, (S)-4-(2-amino-5-(1,3-dimethyl-1H-pyrazol-4-yl)pyridin-3-yl)-N-(1-(3-(difluoromethyl)-5-fluorophenyl)-2-hydroxyethyl)-2-fluorobenzamide] | 0.0467
4 | Cc1c(-c2cnc(N)c(-c3ccc(C(=O)N[C@H](CO)c4cc(F)cc(C(F)F)c4)c(F)c3)c2)cnn1C [Example 271, (S)-4-(2-amino-5-(1,5-dimethyl-1H-pyrazol-4-yl)pyridin-3-yl)-N-(1-(3-(difluoromethyl)-5-fluorophenyl)-2-hydroxyethyl)-2-fluorobenzamide] | 0.0308
5 | Cc1c(-c2cnc(N)c(-c3ccc(C(=O)N[C@H](CO)c4cc(F)cc(C(F)F)c4)c(F)c3)c2)cnn1C(F)F [Example 273, (S)-4-(2-amino-5-(1-(difluoromethyl)-5-methyl-1H-pyrazol-4-yl)pyridin-3-yl)-N-(1-(3-(difluoromethyl)-5-fluorophenyl)-2-hydroxyethyl)-2-fluorobenzamide] | 0.0482
6 | Cc1nn(C(F)F)cc1-c1cnc(N)c(-c2ccc(C(=O)N[C@H](CO)c3cc(F)cc(C(F)F)c3)c(F)c2)c1 [Example 274, (S)-4-(2-amino-5-(1-(difluoromethyl)-3-methyl-1H-pyrazol-4-yl)pyridin-3-yl)-N-(1-(3-(difluoromethyl)-5-fluorophenyl)-2-hydroxyethyl)-2-fluorobenzamide] | 0.0312
7 | Cc1c(-c2cnc(N)c(-c3ccc(C(=O)N[C@H](CO)c4cccc(C(F)F)c4)c(F)c3)c2)cnn1C(F)F [Example 275, (S)-4-(2-amino-5-(1-(difluoromethyl)-5-methyl-1H-pyrazol-4-yl)pyridin-3-yl)-N-(1-(3-(difluoromethyl)phenyl)-2-hydroxyethyl)-2-fluorobenzamide] | 0.0745
8 | Cc1c(-c2cnc(N)c(-c3ccc(C(=O)N[C@H](CO)c4cccc(C(F)F)c4)c(F)c3)c2)cnn1C [Example 276, (S)-4-(2-amino-5-(1,5-dimethyl-1H-pyrazol-4-yl)pyridin-3-yl)-N-(1-(3-(difluoromethyl)phenyl)-2-hydroxyethyl)-2-fluorobenzamide] | 0.0371
9 | Cc1nn(C)cc1-c1cnc(N)c(-c2ccc(C(=O)N[C@H](CO)c3cccc(C(F)F)c3)c(F)c2)c1 [Example 277, (S)-4-(2-amino-5-(1,3-dimethyl-1H-pyrazol-4-yl)pyridin-3-yl)-N-(1-(3-(difluoromethyl)phenyl)-2-hydroxyethyl)-2-fluorobenzamide] | 0.0707
10 | Cc1c(-c2cnc(N)c(-c3ccc(C(=O)N[C@H](C)c4cc(F)cc(S(C)(=O)=O)c4)c(F)c3)c2)cnn1C(F)F [Example 278, (R)-4-(2-amino-5-(1-(difluoromethyl)-5-methyl-1H-pyrazol-4-yl)pyridin-3-yl)-2-fluoro-N-(1-(3-fluoro-5-(methylsulfonyl)phenyl)ethyl) benzamide] | 0.146
11 | Cn1nncc1-c1cnc(N)c(-c2ccc(C(=O)N[C@H](CO)c3cccc(C(F)F)c3)c(F)c2)c1 [Example 301] | 0.0933

Second part, the compound after the results:

Row | IC50 [nM] | Compound
12 | 0.005 | NC[C@@H](NC(=O)c1ccc(-c2nc([C@@H]3CC[C@@H](O)[C@H](F)C3)cnc2N)cc1F)c1cc(F)cc(I)c1 [Example 315, N-((S)-2-amino-1-(3-fluoro-5-iodophenyl)ethyl)-4-(3-amino-6-((1R,3R,4R)-3-fluoro-4-hydroxy-cyclohexyl)pyrazin-2-yl)-2-fluorobenzamide]
13 | 84.9 | Nc1ncc(C2CCOCC2)nc1-c1ccc(C(=O)N[C@@H](C#CC2CC2)CO)c(F)c1 [Example 321, (S)-4-(3-amino-6-(tetrahydro-2H-pyran-4-yl)pyrazin-2-yl)-N-(4-cyclopropyl-1-hydroxybut-3-yn-2-yl)-2-fluorobenzamide]
14 | 0.01 | Nc1ncc(C2CCOCC2)nc1-c1ccc(C(=O)N[C@H](CO)c2cc(F)cc(CF)c2)c(F)c1 [Example 329, (S)-4-(3-amino-6-(tetrahydro-2H-pyran-4-yl)pyrazin-2-yl)-2-fluoro-N-(1-(3-fluoro-5-(fluoromethyl)phenyl)-2-hydroxyethyl) benzamide]
15 | 0.0222 | Nc1ncc(C2CCOCC2)nc1-c1ccc(C(=O)N[C@H](CO)c2cc(F)cc(Cl)c2)c(F)c1 [Example 330, (S)-4-(3-amino-6-(tetrahydro-2H-pyran-4-yl)pyrazin-2-yl)-N-(1-(3-chloro-5-fluorophenyl)-2-hydroxyethyl)-2-fluorobenzamide]
16 | 0.0645 | C[C@@H](O)[C@@H](NC(=O)c1ccc(-c2nc(C3CCOCC3)cnc2N)cc1F)c1cccc(Cl)c1 [Example 331, 4-(3-amino-6-(tetrahydro-2H-pyran-4-yl)pyrazin-2-yl)-N-((1S,2R)-1-(3-chlorophenyl)-2-hydroxypropyl)-2-fluorobenzamide]
17 | 0.815 | C[C@@H](O)[C@@H](NC(=O)c1ccc(-c2cc(-c3cnn(C)c3)cnc2N)cc1F)c1cccc(Cl)c1 [Example 332, 4-(2-amino-5-(1-methyl-1H-pyrazol-4-yl)pyridin-3-yl)-N-((1S,2R)-1-(3-chlorophenyl)-2-hydroxypropyl)-2-fluorobenzamide]
18 | 0.0208 | Nc1ncc(C2CCOCC2)nc1-c1ccc(C(=O)N[C@H](CO)c2cc(F)cc(C(F)F)c2)c(F)c1 [Example 335, (S)-4-(3-amino-6-(tetrahydro-2H-pyran-4-yl)pyrazin-2-yl)-N-(1-(3-(difluoromethyl)-5-fluorophenyl)-2-hydroxyethyl)-2-fluorobenzamide]
19 | 0.0143 | CNC[C@@H](NC(=O)c1ccc(-c2nc(C3CCOCC3)cnc2N)cc1F)c1cc(F)cc(Cl)c1 [Example 336, (S)-4-(3-amino-6-(tetrahydro-2H-pyran-4-yl)pyrazin-2-yl)-N-(1-(3-chloro-5-fluorophenyl)-2-(methylamino)ethyl)-2-fluorobenzamide]
20 | 0.0435 | Nc1ncc([C@H]2CC[C@H](O)CC2)nc1-c1ccc(C(=O)N[C@H](CO)c2cc(F)cc(C(F)F)c2)c(F)c1 [Example 337, 4-(3-amino-6-((1r,4S)-4-hydroxycyclohexy)pyrazin-2-yl)-N-((S)-1-(3-(difluoromethyl)-5-fluorophenyl)-2-hydroxyethyl)-2-fluorobenzamide]
21 | 187 | Nc1ncc([C@H]2CC[C@H](O)CC2)nc1-c1ccc(C(=O)N[C@H](CO)c2cccc(C(F)(F)F)c2)c(F)c1 [Example 340, 4-(3-amino-6-((1r,4S)-4-hydroxy-cyclohexyl)pyrazin-2-yl)-2-fluoro-N-((S)-2-hydroxy-1-(3-(trifluoromethyl)phenyl)ethyl) benzamide]
